Results from patent publication US5279835A, “Binder-free orally administrable tablet containing 3-oxygermylpropionic acid” (Sanwa Kagaku Kenkyusho Co. Ltd., priority 1991, dated 1994).

Legend:
[1] = system: delayed type hypersensitivity reactions (DTH reactions) using sheep red blood cells (SRBCs) as antigens; test: Delayed type hypersensitivity (DTH) reaction, pododerm swelling, in Sarcoma-180 bearing ICR mice sensitized with SRBCs; type: in vivo; conditions: n = 10; for Pododerm Swelling, Average: Table 1-2 (MGWC 55.5, SMG 115.5)
Protocol: The effects of 3-OGP, salts and hydroxypropylcellulose incorporated in compositions were investigated by delayed type hypersensitivity reactions (DTH reactions) using sheep red blood cells (SRBCs) as antigens.
Sarcoma-180 cells (10^6) were intraperitoneally transplanted in test animals--ICR mice (seven-week old), 10 for each group. Then, SRBCs (10^6) were injected into each animal through the vein of the tail for sensitization.
Four days later, SRBCs (2×10^8) were injected into the pododerm of the right hind leg to induce the DTH reaction and, 24 hours later, the thickness of the pododerm was measured. Note that the test drugs were administrated to the animals in the form of a feed mix 4 days before sensitization.

[2] = system: spontaneous nephritis in MRL/1 mice; test: Prevention of spontaneous nephritis in MRL/1 mice (urinary protein, blood urea nitrogen, histopathology); type: in vivo
Protocol: The effect of 3-OGP on preventing spontaneous nephritis in MRL/1 mice was investigated.
2-B) The preparation of Ex. 6 was orally administrated to test animals--MRL/1 mice of six-week old, 15 for each group--at daily doses of 0.1 mg/kg, 1.0 mg/kg and 10.0 mg/kg calculated as 3-OGP twice a week over 12 weeks. It is noted that this preparation was administrated to each animal in the form of a feed mix. […] In addition, the urea nitrogen content of blood on the day following the final administration were measured to make sero-biochemical as well as histopathological estimations of the action of the 3-OGP compositions on nephritis.
It is noted that the urinary protein was determined with Protein Pretest (made by Wako Junyaku) and the urea nitrogen content of blood was estimated with Urea Nitrogen Test B: Urease/Indophenol Method (made by Wako Junyaku).

## 3-oxygermylpropionic acid [Example 3-OGP]
[1]; Table 1-1, first series (MGWC 47.1, SMG 115.4), 0.1 mg/kg in feed mix
  Pododerm Swelling, Average Standard Deviation: 55.1 3.3 × 0.01 mm
[1]; Table 1-1, first series (MGWC 47.1, SMG 115.4), 1 mg/kg in feed mix
  Pododerm Swelling, Average Standard Deviation: 73.8 5.7 × 0.01 mm
[1]; Table 1-1, first series (MGWC 47.1, SMG 115.4), 10 mg/kg in feed mix
  Pododerm Swelling, Average Standard Deviation: 70.2 5.1 × 0.01 mm
[1]; Table 1-1, second series (MGWC 48.9, SMG 117.4), 0.1 mg/kg in feed mix
  Pododerm Swelling, Average Standard Deviation: 64.3 6.4 × 0.01 mm
[1]; Table 1-1, second series (MGWC 48.9, SMG 117.4), 1 mg/kg in feed mix
  Pododerm Swelling, Average Standard Deviation: 72.1 5.5 × 0.01 mm
[1]; Table 1-1, second series (MGWC 48.9, SMG 117.4), 10 mg/kg in feed mix
  Pododerm Swelling, Average Standard Deviation: 66.3 3.1 × 0.01 mm
[1]; 0.1 mg/kg in feed mix
  Pododerm Swelling, Average: 63.5 × 0.01 mm
[1]; 1 mg/kg in feed mix
  Pododerm Swelling, Average: 77.0 × 0.01 mm
[1]; 10 mg/kg in feed mix
  Pododerm Swelling, Average: 73.2 × 0.01 mm
[2]; 10 mg/kg of 3-OGP
  increase in urea nitrogen content of blood: significantly inhibited
[2]; 10 mg/kg of 3-OGP, after 12 weeks
  increase in urinary protein: significantly inhibited even after 12 weeks
[2]; group treated with 3-OGP, control 60%
  glomeruli with lesion severer than mediocre membranous glomerulonephritis: 20-36%
[2]; groups treated with 3-OGP, control increased after 9 to 10 weeks
  urinary protein increase: any urinary protein increase was not found
[2]; preparation of Ex. 6, 0.1 mg/kg as 3-OGP, after 10 weeks, positive = 100 mg/dl or more (control 52.3)
  Urinary Protein in %: 28.7%
[2]; preparation of Ex. 6, 0.1 mg/kg as 3-OGP, after 11 weeks (control 66.6)
  Urinary Protein in %: 47.1%
[2]; preparation of Ex. 6, 0.1 mg/kg as 3-OGP, after 12 weeks (control 91.3)
  Urinary Protein in %: 65.6%
[2]; preparation of Ex. 6, 1 mg/kg as 3-OGP, after 10 weeks (control 52.3)
  Urinary Protein in %: 28.1%
[2]; preparation of Ex. 6, 1 mg/kg as 3-OGP, after 11 weeks (control 66.6)
  Urinary Protein in %: 23.8%
[2]; preparation of Ex. 6, 1 mg/kg as 3-OGP, after 12 weeks (control 91.3)
  Urinary Protein in %: 51.0%
[2]; preparation of Ex. 6, 10 mg/kg as 3-OGP, after 10 weeks (control 52.3)
  Urinary Protein in %: 15.8%
[2]; preparation of Ex. 6, 10 mg/kg as 3-OGP, after 11 weeks (control 66.6)
  Urinary Protein in %: 27.5%
[2]; preparation of Ex. 6, 10 mg/kg as 3-OGP, after 12 weeks (control 91.3)
  Urinary Protein in %: 53.3%
